Experiments:
soybean [1] = test: Test Example 2: soil surface treatment, upland pot test; format: in vivo, Glycine max Merr.; details: observed 20th to 28th day
Summary of the method: (§1)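 Soil surface treated 1 day post-sowing. Formulation: WP or EC, predetermined a.i., diluted to 1,500 L/ha. Pot size 1/170,000 ha, upland soil. Readout: visual % control, 0 = non-treated, 100 = dead, days 20–28.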

corn [2] = test: as above; format: in vivo, Zea mays L.; details: observed 20th to 28th day
Summary of the method: as §1

soybean [3] = test: Test Example 1: foliage treatment, upland pot test; format: in vivo, Glycine max Merr.; details: crop, observed 18th to 23rd day, 0 = non-treated, 100 = complete kill
Summary of the method: (§2)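 Crops and weeds were sown in upland soil pots and sprayed post-emergence at set leaf stages (soybean 0.1–0.4, wheat 1.3–2.4, rice 1.2–2.6, barnyardgrass 1.3–2.8). Formulated compound was applied in 500 L/ha water with 0.1% spreader. Growth control (0–100%) was rated visually 18–23 days later.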

velvetleaf [4] = test: Test Example 1: foliage treatment, upland pot test; format: in vivo, Abutilon theophrasti MEDIC.; details: observed 18th to 23rd day, 0 = non-treated, 100 = complete kill
barnyardgrass [5] = test: Test Example 2: soil surface treatment, upland pot test; format: in vivo, Echinochloa crus-galli L.; details: observed 20th to 28th day
Summary of the method: as §1

rice (var. Nihonbare) = test: Test Example 3: paddy pot test, transplanted rice; format: in vivo, Oryza sativa L.; details: applied 4th day after transplantation, visually observed 21st day after application, 0 = non-treated, 100 = complete kill
Summary of the method: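 Rice (var. Nihonbare) at 2 leaf stage transplanted 3 cm deep into puddled paddy soil under 3–4 cm flooding; on day 4 after transplanting, diluted wettable powder or emulsifiable concentrate applied by pipette under submerged conditions at a set active-ingredient dose. Growth scored visually 21 days after application, 0 (untreated) to 100 (complete kill) %.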

prickly sida [6] = test: Test Example 2: soil surface treatment, upland pot test; format: in vivo, Sida spinosa L.; details: observed 20th to 28th day
Summary of the method: as §1

redroot pigweed [7] = test: as above; format: in vivo, Amaranthus retroflexus L.; details: observed 20th to 28th day
Summary of the method: as §1

prickly sida [8] = test: Test Example 1: foliage treatment, upland pot test; format: in vivo, Sida spinosa L.; details: observed 18th to 23rd day, 0 = non-treated, 100 = complete kill
japanese ribbon wapato = test: Test Example 3: paddy pot test, application under submerged conditions; format: in vivo, Sagittaria pygniaea; details: submerged application at primary leaf stage, visually observed 14 days after application, 0 = non-treated, 100 = complete kill
Summary of the method: (§3)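 Barnyardgrass and japanese bulrush sown in flooded paddy soil in greenhouse pots, japanese ribbon wapato tubers planted 1–2 days later; water depth kept at 3–4 cm. Diluted wettable powder or emulsifiable concentrate applied into water at 0.5-leaf or primary-leaf stage at set active-ingredient doses. Growth control scored visually at 14 days, 0 (untreated) to 100% (complete kill).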

rice [9] = test: Test Example 2: soil surface treatment, upland pot test; format: in vivo, Oryza sativa L.; details: observed 20th to 28th day
Summary of the method: as §1

crabgrass [10] = test: Test Example 1: foliage treatment, upland pot test; format: in vivo, Digitaria sanguinalis L.; details: observed 18th to 23rd day, 0 = non-treated, 100 = complete kill
Description: Upland field soil was put into a 1/170,000 ha pot, and seed of various plants were sown. Then, when the plants reached predetermined leaf stages ((1) barnyardgrass: 1.3 to 2.8 leaf stages, (2) crabgrass: 1.0 to 2.8 leaf stages, (3) green foxtail: 1.3 to 2.6 leaf stages, (4) redroot pigweed: 0.1 to 1.2 leaf stages, (5) prickly sida: 0.1 to 1.2 leaf stages, (6) velvetleaf: 0.1 to 1.2 leaf stages, (7) tall morningglory: 0.1 to 1.5 leaf stages, (8) rice: 1.2 to 2.6 leaf stages, (9) wheat: 1.3 to 2.4 leaf stages, (10) corn, 2.1 to 3.2 leaf stages, (11) soybean: 0.1 to 0.4 leaf stage), a wettable powder or emulsifiable concentrate having the compound of the present invention formulated in accordance with a usual formulation method, was weighed so that the active ingredient would be a predetermined amount, and diluted with water in an amount of 500 L/ha. To the diluted solution, 0.1% (v/v) of agricultural spreader was added. The herbicide thus adjusted was applied by a small size sprayer for foliage treatment. On the 18th to 23rd days after the application of the herbicide, the growth of the respective plants was visually observed, and the herbicidal effects were evaluated by the growth controlling degrees (%) ranging from 0 (equivalent to the non-treated plot) to 100 (complete kill), whereby the results shown in Table 3, were obtained.

rice [11] = test: Test Example 1: foliage treatment, upland pot test; format: in vivo, Oryza sativa L.; details: crop, observed 18th to 23rd day, 0 = non-treated, 100 = complete kill
Summary of the method: as §2

japanese bulrush = test: Test Example 3: paddy pot test, application under submerged conditions; format: in vivo, Scirpus juncoides; details: submerged application at 0.5 leaf stage, visually observed 14 days after application, 0 = non-treated, 100 = complete kill
Summary of the method: as §3

barnyardgrass [12] = test: Test Example 1: foliage treatment, upland pot test; format: in vivo, Echinochloa crus-galli L.; details: observed 18th to 23rd day, 0 = non-treated, 100 = complete kill
Summary of the method: as §2

velvetleaf [13] = test: Test Example 2: soil surface treatment, upland pot test; format: in vivo, Abutilon theophrasti MEDIC.; details: observed 20th to 28th day
Summary of the method: as §1

green foxtail [14] = test: Test Example 1: foliage treatment, upland pot test; format: in vivo, Setaria viridis L.; details: observed 18th to 23rd day, 0 = non-treated, 100 = complete kill
green foxtail [15] = test: Test Example 2: soil surface treatment, upland pot test; format: in vivo, Setaria viridis L.; details: observed 20th to 28th day
Summary of the method: as §1

crabgrass [16] = test: as above; format: in vivo, Digitaria sanguinalis L.; details: observed 20th to 28th day
Summary of the method: as §1

redroot pigweed [17] = test: Test Example 1: foliage treatment, upland pot test; format: in vivo, Amaranthus retroflexus L.; details: observed 18th to 23rd day, 0 = non-treated, 100 = complete kill
corn [18] = test: Test Example 1: foliage treatment, upland pot test; format: in vivo, Zea mays L.; details: crop, observed 18th to 23rd day, 0 = non-treated, 100 = complete kill
Summary of the method: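 Corn seeds were sown in upland field soil held in a 1/170,000 ha pot and grown to the 2.1 to 3.2 leaf stage. A wettable powder or emulsifiable concentrate of the test compound was diluted with water at 500 L/ha, given 0.1% (v/v) agricultural spreader, and sprayed onto the foliage with a small sprayer. Growth controlling degree (%) was scored visually 18th to 23rd days later, from 0 (non-treated) to 100 (complete kill).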

barnyardgrass [19] = test: Test Example 3: paddy pot test, application under submerged conditions; format: in vivo, Echinochloa crus-galli L.; details: active ingredient 250 g/ha; submerged application at 0.5 leaf stage; visually observed 14 days after application; 0 = non-treated, 100 = complete kill
Summary of the method: as §3

Compound	Growth controlling degree (%) Soyabean (soybean [1]; active ingredient 500 g/ha) [%]	Growth controlling degree (%) Corn (corn [2]; active ingredient 500 g/ha) [%]	Growth controlling degree (%) Soybean (soybean [3]; active ingredient 1000 g/ha) [%]	Growth controlling degree (%) Velvetleaf (velvetleaf [4]; active ingredient 1000 g/ha) [%]	Growth controlling degree (%) Barnyardgrass (barnyardgrass [5]; active ingredient 500 g/ha) [%]	Growth controlling degree (%) Rice (rice (var. Nihonbare); active ingredient 500 g/ha) [%]	Growth controlling degree (%) Prickly sida (prickly sida [6]; active ingredient 500 g/ha) [%]	Growth controlling degree (%) Redroot pigweed (redroot pigweed [7]; active ingredient 500 g/ha) [%]	Growth controlling degree (%) Prickly sida (prickly sida [8]; active ingredient 1000 g/ha) [%]	Growth controlling degree (%) Japanese ribbon wapato (japanese ribbon wapato; active ingredient 500 g/ha) [%]	Growth controlling degree (%) Rice (rice [9]; active ingredient 500 g/ha) [%]	Growth controlling degree (%) Crabgrass (crabgrass [10]; active ingredient 1000 g/ha) [%]	Growth controlling degree (%) Rice (rice [11]; active ingredient 1000 g/ha) [%]	Growth controlling degree (%) Japanese bulrush (japanese bulrush; active ingredient 500 g/ha) [%]	Growth controlling degree (%) Barnyardgrass (barnyardgrass [12]; active ingredient 1000 g/ha) [%]	Growth controlling degree (%) Velvetleaf (velvetleaf [13]; active ingredient 500 g/ha) [%]	Growth controlling degree (%) Green foxtail (green foxtail [14]; active ingredient 1000 g/ha) [%]	Growth controlling degree (%) Green foxtail (green foxtail [15]; active ingredient 500 g/ha) [%]	Growth controlling degree (%) Crabgrass (crabgrass [16]; active ingredient 500 g/ha) [%]	Growth controlling degree (%) Redroot pigweed (redroot pigweed [17]; active ingredient 1000 g/ha) [%]	other results
CC(C)C(c1cnccc1C(F)(F)F)N(C)C(=O)Cc1ccc(F)cc1F (stereo not shown) [I-18]	50	50	70	90	100	10	80	80	90	90	20	90	50	90	90	80	70	100	100	90	Growth controlling degree (%) Corn (corn [18]; active ingredient 1000 g/ha): 80%
CC(C)C(c1cnccc1C(F)(F)F)N(C)C(=O)Cc1cccc(F)c1F (stereo not shown) [I-19]	30	30	90	80	95	35	98	80	80	95	10	90	20	95	80	80	70	100	100	80	Growth controlling degree (%) Corn (corn [18]; active ingredient 1000 g/ha): 50%
CC(C)C(c1cnccc1C(F)(F)F)N(C)C(=O)Cc1ccc(F)cc1 (stereo not shown) [I-21]						40				100				98							Growth controlling degree (%) Soyabean (soybean [1]; active ingredient 250 g/ha): 20%; Growth controlling degree (%) Corn (corn [2]; active ingredient 250 g/ha): 50%; Growth controlling degree (%) Soybean (soybean [3]; active ingredient 500 g/ha): 70%; Growth controlling degree (%) Velvetleaf (velvetleaf [4]; active ingredient 500 g/ha): 95%; Growth controlling degree (%) Barnyardgrass (barnyardgrass [5]; active ingredient 250 g/ha): 60%; Growth controlling degree (%) Prickly sida (prickly sida [6]; active ingredient 250 g/ha): 80%; Growth controlling degree (%) Redroot pigweed (redroot pigweed [7]; active ingredient 250 g/ha): 90%; Growth controlling degree (%) Prickly sida (prickly sida [8]; active ingredient 500 g/ha): 90%; Growth controlling degree (%) Rice (rice [9]; active ingredient 250 g/ha): 40%; Growth controlling degree (%) Crabgrass (crabgrass [10]; active ingredient 500 g/ha): 95%; Growth controlling degree (%) Rice (rice [11]; active ingredient 500 g/ha): 20%; Growth controlling degree (%) Barnyardgrass (barnyardgrass [12]; active ingredient 500 g/ha): 80%; Growth controlling degree (%) Velvetleaf (velvetleaf [13]; active ingredient 250 g/ha): 70%; Growth controlling degree (%) Green foxtail (green foxtail [14]; active ingredient 500 g/ha): 70%; Growth controlling degree (%) Green foxtail (green foxtail [15]; active ingredient 250 g/ha): 90%; Growth controlling degree (%) Crabgrass (crabgrass [16]; active ingredient 250 g/ha): 98%; Growth controlling degree (%) Redroot pigweed (redroot pigweed [17]; active ingredient 500 g/ha): 90%; Growth controlling degree (%) Corn (corn [18]; active ingredient 500 g/ha): 30%
CC(C)C(c1cnccc1C(F)(F)F)N(C)C(=O)Cc1cccc(C(F)(F)F)c1F (stereo not shown) [I-29]	10	20			100		98	70			30					70		100	99		Growth controlling degree (%) Soybean (soybean [3]; active ingredient 500 g/ha): 50%; Growth controlling degree (%) Velvetleaf (velvetleaf [4]; active ingredient 500 g/ha): 80%; Growth controlling degree (%) Rice (rice (var. Nihonbare); active ingredient 250 g/ha): 10%; Growth controlling degree (%) Barnyardgrass (barnyardgrass [19]): 100%; Growth controlling degree (%) Prickly sida (prickly sida [8]; active ingredient 500 g/ha): 80%; Growth controlling degree (%) Japanese ribbon wapato (japanese ribbon wapato; active ingredient 250 g/ha): 10%; Growth controlling degree (%) Crabgrass (crabgrass [10]; active ingredient 500 g/ha): 90%; Growth controlling degree (%) Rice (rice [11]; active ingredient 500 g/ha): 10%; Growth controlling degree (%) Japanese bulrush (japanese bulrush; active ingredient 250 g/ha): 70%; Growth controlling degree (%) Barnyardgrass (barnyardgrass [12]; active ingredient 500 g/ha): 60%; Growth controlling degree (%) Green foxtail (green foxtail [14]; active ingredient 500 g/ha): 60%; Growth controlling degree (%) Redroot pigweed (redroot pigweed [17]; active ingredient 500 g/ha): 80%; Growth controlling degree (%) Corn (corn [18]; active ingredient 500 g/ha): 10%

Source: US20050239656A1, “Pyridine compounds or salts thereof and herbicides containing the same” (priority 2002, published 2005)
